PubChem BioAssay (NCI)
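1) Cells in 96-well plates. 2) Compound, 48 h, 5 concentrations. 3) Linear interpolation between surrounding doses. 4) Unreached endpoint = highest concentration. The concentration for 50% growth inhibition is given as GI50. TGI: concentration producing complete growth inhibition.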

Assays:
Assay in all cases: NCI-60 cell line screen, 48 h
786-0 renal = test system: 786-0 renal
A498 renal = test system: A498 renal
A549 NSCLC = test system: A549 NSCLC
ACHN renal = test system: ACHN renal
BT-549 breast = test system: BT-549 breast
CAKI-1 renal = test system: CAKI-1 renal
CCRF-CEM leukemia = test system: CCRF-CEM leukemia
COLO 205 colon = test system: COLO 205 colon
DU-145 prostate = test system: DU-145 prostate
EKVX NSCLC = test system: EKVX NSCLC
HCC-2998 colon = test system: HCC-2998 colon
HCT-116 colon = test system: HCT-116 colon
HCT-15 colon = test system: HCT-15 colon
HL-60(TB) leukemia = test system: HL-60(TB) leukemia
HOP-62 NSCLC = test system: HOP-62 NSCLC
HOP-92 NSCLC = test system: HOP-92 NSCLC
HS 578T breast = test system: HS 578T breast
HT29 colon = test system: HT29 colon
IGROV1 ovarian = test system: IGROV1 ovarian
K-562 leukemia = test system: K-562 leukemia
KM12 colon = test system: KM12 colon
LOX IMVI melanoma = test system: LOX IMVI melanoma
M14 melanoma = test system: M14 melanoma
MALME-3M melanoma = test system: MALME-3M melanoma
MCF7 breast = test system: MCF7 breast
MDA-MB-231 breast = test system: MDA-MB-231 breast
MDA-MB-435 = test system: MDA-MB-435
MOLT-4 leukemia = test system: MOLT-4 leukemia
NCI-H226 lung = test system: NCI-H226 lung
NCI-H23 lung = test system: NCI-H23 lung
NCI-H460 lung = test system: NCI-H460 lung
NCI-H522 lung = test system: NCI-H522 lung
NCI/ADR-RES ovarian = test system: NCI/ADR-RES ovarian
OVCAR-3 ovarian = test system: OVCAR-3 ovarian
OVCAR-4 ovarian = test system: OVCAR-4 ovarian
OVCAR-5 ovarian = test system: OVCAR-5 ovarian
OVCAR-8 ovarian = test system: OVCAR-8 ovarian
PC-3 prostate = test system: PC-3 prostate
RPMI-8226 leukemia = test system: RPMI-8226 leukemia
RXF 393 renal = test system: RXF 393 renal
SF-268 CNS = test system: SF-268 CNS
SF-295 CNS = test system: SF-295 CNS
SF-539 CNS = test system: SF-539 CNS
SK-MEL-2 melanoma = test system: SK-MEL-2 melanoma
SK-MEL-28 melanoma = test system: SK-MEL-28 melanoma
SK-MEL-5 melanoma = test system: SK-MEL-5 melanoma
SK-OV-3 ovarian = test system: SK-OV-3 ovarian
SN12C renal = test system: SN12C renal
SNB-19 CNS = test system: SNB-19 CNS
SNB-75 CNS = test system: SNB-75 CNS
SR leukemia = test system: SR leukemia
SW-620 colon = test system: SW-620 colon
T-47D breast = test system: T-47D breast
TK-10 renal = test system: TK-10 renal
U251 CNS = test system: U251 CNS
UACC-257 melanoma = test system: UACC-257 melanoma
UACC-62 melanoma = test system: UACC-62 melanoma
UO-31 renal = test system: UO-31 renal

## Oc1ccc(Cl)cc1C(c1cc(Cl)ccc1O)C(Cl)(Cl)Cl
786-0 renal
  GI50: 2 µM
  TGI: 3.99 µM
A498 renal
  GI50: 1.67 µM
  TGI: 3.53 µM
A549 NSCLC
  GI50: 2.68 µM
  TGI: 8.25 µM
ACHN renal
  GI50: 1.76 µM
  TGI: 4.11 µM
BT-549 breast
  GI50: 1.82 µM
  TGI: 4.71 µM
CAKI-1 renal
  GI50: 1.97 µM
  TGI: 6.06 µM
CCRF-CEM leukemia
  GI50: 3.2 µM
  TGI: 8.02 µM
COLO 205 colon
  GI50: 1.9 µM
  TGI: 3.82 µM
DU-145 prostate
  GI50: 1.77 µM
  TGI: 3.42 µM
EKVX NSCLC
  GI50: 1.84 µM
  TGI: 5.8 µM
HCC-2998 colon
  GI50: 1.69 µM
  TGI: 3.28 µM
HCT-116 colon
  GI50: 1.56 µM
  TGI: 2.97 µM
HCT-15 colon
  GI50: 1.94 µM
  TGI: 5.07 µM
HL-60(TB) leukemia
  GI50: 2.45 µM
  TGI: 5.13 µM
HOP-62 NSCLC
  GI50: 1.7 µM
  TGI: 3.64 µM
HOP-92 NSCLC
  GI50: 2.28 µM
  TGI: 5.44 µM
HS 578T breast
  GI50: 1.81 µM
  TGI: 4.45 µM
HT29 colon
  GI50: 2.05 µM
  TGI: 4 µM
IGROV1 ovarian
  GI50: 1.63 µM
  TGI: 5.67 µM
K-562 leukemia
  GI50: 2.28 µM
  TGI: 5.59 µM
KM12 colon
  GI50: 1.73 µM
  TGI: 3.34 µM
LOX IMVI melanoma
  GI50: 1.66 µM
  TGI: 3.22 µM
M14 melanoma
  GI50: 1.78 µM
  TGI: 3.62 µM
MALME-3M melanoma
  GI50: 1.5 µM
  TGI: 3.91 µM
MCF7 breast
  GI50: 2.42 µM
  TGI: 6.65 µM
MDA-MB-231 breast
  GI50: 1.71 µM
  TGI: 3.86 µM
MDA-MB-435
  GI50: 1.95 µM
  TGI: 4.21 µM
MOLT-4 leukemia
  GI50: 1.54 µM
  TGI: 5.06 µM
NCI-H226 lung
  GI50: 1.94 µM
  TGI: 4.81 µM
NCI-H23 lung
  GI50: 1.73 µM
  TGI: 3.96 µM
NCI-H460 lung
  GI50: 2.13 µM
  TGI: 4.58 µM
NCI-H522 lung
  GI50: 1.87 µM
  TGI: 5.44 µM
NCI/ADR-RES ovarian
  GI50: 1.99 µM
  TGI: 4.67 µM
OVCAR-3 ovarian
  GI50: 1.92 µM
  TGI: 4.23 µM
OVCAR-4 ovarian
  GI50: 2.71 µM
  TGI: 10.7 µM
OVCAR-5 ovarian
  GI50: 1.66 µM
  TGI: 3.68 µM
OVCAR-8 ovarian
  GI50: 2.89 µM
  TGI: 9.59 µM
PC-3 prostate
  GI50: 1.79 µM
  TGI: 4.76 µM
RPMI-8226 leukemia
  GI50: 2.72 µM
  TGI: 8.4 µM
RXF 393 renal
  GI50: 1.95 µM
  TGI: 4.16 µM
SF-268 CNS
  GI50: 1.77 µM
  TGI: 3.41 µM
SF-295 CNS
  GI50: 1.97 µM
  TGI: 4.76 µM
SF-539 CNS
  GI50: 1.69 µM
  TGI: 3.67 µM
SK-MEL-2 melanoma
  GI50: 2.12 µM
  TGI: 5.36 µM
SK-MEL-28 melanoma
  GI50: 1.8 µM
  TGI: 4.02 µM
SK-MEL-5 melanoma
  GI50: 1.58 µM
  TGI: 3.05 µM
SK-OV-3 ovarian
  GI50: 2.94 µM
  TGI: 9.76 µM
SN12C renal
  GI50: 1.67 µM
  TGI: 3.28 µM
SNB-19 CNS
  GI50: 3.24 µM
  TGI: 10.8 µM
SNB-75 CNS
  GI50: 2.17 µM
  TGI: 9.57 µM
SR leukemia
  GI50: 1.5 µM
  TGI: 5.34 µM
SW-620 colon
  GI50: 1.73 µM
  TGI: 3.3 µM
T-47D breast
  GI50: 3.32 µM
  TGI: 12.4 µM
TK-10 renal
  GI50: 2.27 µM
  TGI: 5.01 µM
U251 CNS
  GI50: 1.71 µM
  TGI: 3.45 µM
UACC-257 melanoma
  GI50: 2.68 µM
  TGI: 10.3 µM
UACC-62 melanoma
  GI50: 1.59 µM
  TGI: 3.82 µM
UO-31 renal
  GI50: 1.5 µM
  TGI: 4.78 µM

## O=C1NC(=NCCc2ccc(F)cc2)S/C1=C\c1ccc2ncccc2c1
786-0 renal
  GI50: > 25 µM
  TGI: > 25 µM
A498 renal
  GI50: > 25 µM
  TGI: > 25 µM
A549 NSCLC
  GI50: > 25 µM
  TGI: > 25 µM
ACHN renal
  GI50: > 25 µM
  TGI: > 25 µM
BT-549 breast
  GI50: > 25 µM
  TGI: > 25 µM
CAKI-1 renal
  GI50: > 25 µM
  TGI: > 25 µM
CCRF-CEM leukemia
  GI50: > 25 µM
  TGI: > 25 µM
COLO 205 colon
  GI50: > 25 µM
  TGI: > 25 µM
DU-145 prostate
  GI50: > 25 µM
  TGI: > 25 µM
HCC-2998 colon
  GI50: > 25 µM
  TGI: > 25 µM
HCT-116 colon
  GI50: 13.8 µM
  TGI: > 25 µM
HCT-15 colon
  GI50: > 25 µM
  TGI: > 25 µM
HL-60(TB) leukemia
  GI50: > 25 µM
  TGI: > 25 µM
HOP-62 NSCLC
  GI50: > 25 µM
  TGI: > 25 µM
HOP-92 NSCLC
  GI50: > 25 µM
  TGI: > 25 µM
HS 578T breast
  GI50: > 25 µM
  TGI: > 25 µM
HT29 colon
  GI50: > 25 µM
  TGI: > 25 µM
IGROV1 ovarian
  GI50: > 25 µM
  TGI: > 25 µM
K-562 leukemia
  GI50: > 25 µM
  TGI: > 25 µM
KM12 colon
  GI50: > 25 µM
  TGI: > 25 µM
LOX IMVI melanoma
  GI50: > 25 µM
  TGI: > 25 µM
M14 melanoma
  GI50: > 25 µM
  TGI: > 25 µM
MALME-3M melanoma
  GI50: > 25 µM
  TGI: > 25 µM
MCF7 breast
  GI50: > 23.1 µM
  TGI: > 25 µM
MDA-MB-231 breast
  GI50: > 25 µM
  TGI: > 25 µM
MDA-MB-435
  GI50: > 25 µM
  TGI: > 25 µM
MOLT-4 leukemia
  GI50: > 25 µM
  TGI: > 25 µM
NCI-H226 lung
  GI50: > 25 µM
  TGI: > 25 µM
NCI-H23 lung
  GI50: > 25 µM
  TGI: > 25 µM
NCI-H460 lung
  GI50: > 25 µM
  TGI: > 25 µM
NCI-H522 lung
  GI50: > 25 µM
  TGI: > 25 µM
NCI/ADR-RES ovarian
  GI50: > 25 µM
  TGI: > 25 µM
OVCAR-3 ovarian
  GI50: > 25 µM
  TGI: > 25 µM
OVCAR-4 ovarian
  GI50: > 25 µM
  TGI: > 25 µM
OVCAR-5 ovarian
  GI50: > 25 µM
  TGI: > 25 µM
OVCAR-8 ovarian
  GI50: > 25 µM
  TGI: > 25 µM
PC-3 prostate
  GI50: > 25 µM
  TGI: > 25 µM
RPMI-8226 leukemia
  GI50: > 25 µM
  TGI: > 25 µM
RXF 393 renal
  GI50: > 25 µM
  TGI: > 25 µM
SF-268 CNS
  GI50: > 25 µM
  TGI: > 25 µM
SF-295 CNS
  GI50: > 25 µM
  TGI: > 25 µM
SF-539 CNS
  GI50: > 25 µM
  TGI: > 25 µM
SK-MEL-2 melanoma
  GI50: > 25 µM
  TGI: > 25 µM
SK-MEL-28 melanoma
  GI50: > 25 µM
  TGI: > 25 µM
SK-MEL-5 melanoma
  GI50: > 25 µM
  TGI: > 25 µM
SK-OV-3 ovarian
  GI50: > 25 µM
  TGI: > 25 µM
SN12C renal
  GI50: > 25 µM
  TGI: > 25 µM
SNB-19 CNS
  GI50: > 25 µM
  TGI: > 25 µM
SNB-75 CNS
  GI50: > 25 µM
  TGI: > 25 µM
SR leukemia
  GI50: 7.09 µM
  TGI: > 25 µM
SW-620 colon
  GI50: > 23.3 µM
  TGI: > 25 µM
T-47D breast
  GI50: > 25 µM
  TGI: > 25 µM
TK-10 renal
  GI50: > 25 µM
  TGI: > 25 µM
U251 CNS
  GI50: > 25 µM
  TGI: > 25 µM
UACC-257 melanoma
  GI50: > 25 µM
  TGI: > 25 µM
UACC-62 melanoma
  GI50: > 25 µM
  TGI: > 25 µM
UO-31 renal
  GI50: > 25 µM
  TGI: > 25 µM
